Data as given in patent US11167007B2, “FOXM1 modulators and uses thereof” (City of Hope, priority 2016, dated 2021).

Assays:
AR [1] = target: T1, AR (Homo sapiens, UniProt P10275); assay: FRET-based AR conformation change reporter (CARY) in LNCaP C4 prostate cells; type: cell-based; set-up: Full length AR with cyan fluorescent protein (CFP) or yellow fluorescent protein (YFP) fused to either end (CARY); expressed in transfected cells; settings: LNCaP C4 prostate cancer cells
T1 sequence (P10275 1-920): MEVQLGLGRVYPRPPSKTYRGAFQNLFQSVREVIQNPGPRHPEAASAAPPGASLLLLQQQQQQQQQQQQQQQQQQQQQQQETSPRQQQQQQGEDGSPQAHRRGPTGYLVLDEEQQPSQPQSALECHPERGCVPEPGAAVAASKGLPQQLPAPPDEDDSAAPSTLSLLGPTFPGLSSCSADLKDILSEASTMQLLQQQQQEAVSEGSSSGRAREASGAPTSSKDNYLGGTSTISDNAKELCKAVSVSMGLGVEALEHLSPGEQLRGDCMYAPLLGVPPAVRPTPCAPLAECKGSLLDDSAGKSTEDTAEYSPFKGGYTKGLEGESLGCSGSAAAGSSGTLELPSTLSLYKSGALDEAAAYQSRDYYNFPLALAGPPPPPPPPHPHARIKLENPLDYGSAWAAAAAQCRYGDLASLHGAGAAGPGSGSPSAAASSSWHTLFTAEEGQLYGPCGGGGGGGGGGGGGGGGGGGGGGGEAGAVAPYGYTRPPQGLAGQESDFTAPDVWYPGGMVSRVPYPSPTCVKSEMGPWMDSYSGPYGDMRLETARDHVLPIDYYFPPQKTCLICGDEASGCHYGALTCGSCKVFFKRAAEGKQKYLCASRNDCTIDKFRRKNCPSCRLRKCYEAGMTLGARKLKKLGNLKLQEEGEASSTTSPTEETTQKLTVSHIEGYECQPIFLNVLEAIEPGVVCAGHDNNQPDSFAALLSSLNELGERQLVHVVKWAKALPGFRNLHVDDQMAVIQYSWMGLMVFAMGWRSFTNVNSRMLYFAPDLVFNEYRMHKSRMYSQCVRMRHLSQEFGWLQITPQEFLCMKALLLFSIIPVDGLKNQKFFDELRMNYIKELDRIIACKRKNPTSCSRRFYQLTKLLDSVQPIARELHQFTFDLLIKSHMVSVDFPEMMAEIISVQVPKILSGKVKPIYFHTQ
Experimental: (§1) Creation of stable C-AR-Y reporter cell lines. Cell lines listed above were either transfected with a plasmid or a virus containing the CFP-AR-YFP construct preceding an IRES and hygromycin resistance gene and clonal stable cell lines selected. Qualification criteria for the transfected cell lines were described by Jones et al, ACS Chem Biol, 3(7):412-8 (2008).
(§2) Screen for AR-modulators. Screening was performed essentially as described by Jones et al, ACS Chem Biol, 3(7):412-8 (2008). Briefly, C-AR-Y reporter GTI-7 were transferred to 96 well plates and treated with library compounds for 24 hours. […] The compounds to be tested were from the NCI/DTP Open Chemical Repository's Approved Oncology Drugs Set II, Diversity Set II and Mechanistic Set. […] After 24 hours, medium was aspirated and FRET was measured as previously described using a monochromator-based fluorescence plate reader (M1000, Tecan, Inc.). Jones et al, ACS Chem Biol, 3(7):412-8 (2008). […]
(§3) In order to identify potential cell-type selective AR modulators, the FRET-based assay of AR conformation change was utilized. […] This produces an accurate and quantifiable read-out of AR activity. […] Candidate hits were then further evaluated by dose response. […] In addition to FRET, AR transcriptional activity was also assessed in several cell lines by transfecting cells with a luciferase reporter driven by the human PSA promoter. […]

AR [2] = target: T1, AR; assay: FRET-based AR conformation change reporter (CARY) in 3T3L1 adipose cells; type: cell-based, murine; set-up: Full length AR with cyan fluorescent protein (CFP) or yellow fluorescent protein (YFP) fused to either end (CARY); expressed in transfected cells; settings: 3T3L1 adipose-derived cells
Experimental: as §1, §2, §3

AR [3] = assay: Western blot of AR levels in GT1-7 CARY cells; type: cell-based, murine
Source text: Western Blot. Cell lysates was separated on a 6% SDS page gel and transferred to a nitrocellulose membrane. The membrane was blocked for one hour in 5% skim milk dissolved in TBS-T and probed with the following antibodies ([…]): FoxM1 (rabbit, GeneTex), AR: 441 (mouse, Santa Cruz Biotechnology), β-catenin (rabbit 9562, Cell Signaling Technology), p84 (mouse, GeneTex) and actin (mouse, Santa Cruz Biotechnology). Horse radish peroxidase linked secondary antibodies were used along with ECL reagents for visualization. Western blots were quantified using Quantity One analysis software (BioRad).
It has been previously reported that thiostrepton causes decreased levels of FOXM1. Hegde et al, Nat Chem, 3(9):725-31 (2011); Gartel, Front Oncol, 3:150 (2013). […] The nuclear association between FOXM1 and β-catenin increases the transcriptional activity of both factors. Zhang et al, Cancer Cell, 20(4):427-42 (2011). β-catenin is a key AR coactivator in a variety of cells. Yang, J Biol Chem, 277(13):11336-44 (2002); Truica et al, Cancer Res, 60(17):4709-13 (2000). The inventors believed that thiostrepton could inhibit AR activity by limiting access to nuclear β-catenin via FOXM1 depletion. […] As expected, control actin protein was observed primarily in cytoplasmic fraction.

SMILES | AR inhibitor activity in words (AR [1]; listed as Siomycin A) | AR inhibitor activity in words (AR [1]; listed as siomycin) | AR inhibitor activity in words (AR [2]) | AR levels (Western blot) (AR [3])
C=C(NC(=O)C(=C)NC(=O)c1csc(C2=N[C@@H]3c4csc(n4)[C@H]4NC(=O)c5csc(n5)[C@H]([C@](C)(O)[C@@H](C)O)NC(=O)[C@H]5CSC(=N5)/C(=C/C)NC(=O)[C@H]([C@@H](C)O)NC(=O)c5csc(n5)[C@]3(CC2)NC(=O)[C@H](C)NC(=O)C(=C)NC(=O)C(=C)NC(=O)[C@H](C(C)C)N[C@@H]2C=Cc3c([C@H](C)O)cc(nc3[C@H]2O)C(=O)O[C@@H]4C)n1)C(N)=O [NSC285116, siomycin A] | little to no activity | not as sensitive | little to no activity | –
C=C(NC(=O)C(=C)NC(=O)c1csc(C2=N[C@@H]3c4csc(n4)[C@H]4NC(=O)c5csc(n5)[C@H]([C@](C)(O)[C@@H](C)O)NC(=O)[C@H]5CSC(=N5)/C(=C/C)NC(=O)[C@H]([C@@H](C)O)NC(=O)c5csc(n5)[C@]3(CC2)NC(=O)[C@H](C)NC(=O)C(=C)NC(=O)[C@H](C)NC(=O)[C@H]([C@@H](C)CC)N[C@@H]2C=Cc3c([C@H](C)O)cc(nc3[C@H]2O)C(=O)O[C@@H]4C)n1)C(N)=O [thiostrepton] | – | – | – | not consistently decreased
